This data set can be described thus: In vivo pharmacokinetic analysis. The note with it: mouse, i.p. 25 mg/kg. As to the method:
FIGURE 8 (A) In vivo pharmacokinetic (PK) analysis of compound 2 (mean±sem, n = 2 per time point). (B) Body weight throughout the 7‐week treatment. Mice of the indicated genotypes (mean±sem, n = 2) were treated with compound 2 or vehicle, starting at 6 weeks of age. (C) Progerin and H3K9Me3 levels in lung and liver, respectively, of mice treated for 7 weeks. Representative cropped immunoblots are shown. MW, molecular weight (in kDa) markers. […] TEXT PRINTED IN THE PICTURE: (A) no label printed: VD (L·Kg^-1): 11± 5 (Dose (D) (mg·Kg^-1): 25); Ke (h^-1): 0.9± 0.1 (Dose (D) (mg·Kg^-1): 25); t1/2 (h): […] (Dose (D) (mg·Kg^-1): 25); AUC (mg·h·L^-1): 3±1 (Dose (D) (mg·Kg^-1): 25); CL (L·Kg^-1·h^-1): 10±5 (Dose (D) (mg·Kg^-1): 25) DOUBTS OF THE COPYIST ABOUT THIS PICTURE: Panel A: the picture prints no substance label beside the pharmacokinetic table, so the label is left empty. "Cpd 2" is printed only in panel B. […]
All scientific procedures with animals were conformed to EU Directive 2010/63 EU and Recommendation 2007/526/EC, enforced in Spanish law under Real Decreto 53/2013.
Animal protocols were approved by the Committee of Animal Experimentation of Universidad Complutense de Madrid and the Animal Protection Area of the Comunidad Autónoma de Madrid (PROEX 114.4/24). Animal studies were carried out in LmnaG609G/G609G knock-in mice ubiquitously expressing progerin[19] and control Lmna+/+ littermates, obtained by breeding LmnaG609G/+ mice kindly donated by Prof. V. Andrés (CNIC, Spain). Mice were maintained in the animal facility of the Universidad Complutense de Madrid under specific pathogen free conditions.
For pharmacokinetic studies, compound 2 was administered intraperitoneally and blood was collected at the selected time points post-dose (n=2-3 per time point) by cardiac puncture. Blood was allowed to clot at room temperature for 30 min and centrifuged at 4 °C for 10 min at 10000g. The supernatant was transferred to a clean polypropylene tube and stored at -80 °C until analysis. For analysis, a volume of cold acetonitrile was added to the serum. The sample was incubated in an ice bath for 10 min and centrifuged at 4 °C for 10 min at 18000g. The resulting organic layer was filtered through a polytetrafluoroethylene filter (0.2 µm, 13 mm diameter, Agilent Technologies) and 30 µL of the sample analyzed by liquid chromatography coupled to mass spectrometry multiple reaction monitoring at the UCM’s Mass Spectrometry CAI. Separation was performed using a Phenomenex Gemini 5 µm C18 110Å 150x2 mm column (run time 9 min; flow 0.7 mL/min; gradient: 0 min 5% B; 4-7 min 100% B; 7.5 min 5% B; Phase A: water with formic acid 0.1%; Phase B: acetonitrile). […]
UHPLC with an oven temperature of 31.5 °C. The mass spectrometer ion optics were set in the multiple reaction monitoring mode and the transition selected for quantification […]
For in vivo treatment, compound 2 was administrated at a concentration of 25 mg/kg diluted in sterile corn oil (Sigma-Aldrich) intraperitoneally three times per week starting at the age of 6 weeks. The same quantity of corn oil was injected to control […]
After 7 weeks of treatment, mice were euthanized by CO2 inhalation. […] For immunoblot analysis, a portion of the corresponding tissue was homogenized, and the protein concentration was determined. Samples containing equivalent amounts of total protein were then subjected to polyacrylamide gel electrophoresis and analyzed as […]

For orientation: AUC means the area under the concentration-time curve, a measure of exposure. As to `CC1(C)Oc2cc3oc(=O)ccc3cc2C[C@@H]1OC(=O)CCCCCNc1cccc2c1C(=O)N(C1CCC(=O)NC1=O)C2=O` (some centres unmarked) [compound 2], the signs of toxicity result is given as “no evident signs of toxicity”. Moreover, the concentration at 1 h (ip, serum, 1 h, read-out: levels of the compound 1 h after administration) was approximately 1500 ng/mL. For the same compound, the half-life (serum, ip, 25 mg/kg, read-out: t1/2 (half‐life) (converted)) was approximately 2 h. In addition, the AUC (serum, ip) was 3000 ± 1000 ng·h/mL. In addition, the k el (serum, ip, read-out: Ke (converted)) was 0.00025 s⁻¹.
